Values of other authors as cited in patent US20090162858A1, “Orthogonal chemical inducer of dimerization” (priority 2007, published 2009).

Test system: wild type Saccrharomyces cerevisiae
Conditions: [Game, 1975]

SMILES	growth of wild type yeast
CN(Cc1cnc2nc(N)nc(N)c2n1)c1ccc(C(=O)N[C@@H](CCC(=O)O)C(=O)O)cc1 [Methotrexate]	inhibits growth
COc1cc(Cc2cnc(N)nc2N)cc(OC)c1OC [Trimethoprim, 2,4-diamino-5-(3,4,5-trimethoxybenzyl)pyrimidine]	does not
